Experimental data published in patent publication US5562894A, “Amino-acyl-type and catecholamine-type contrast agents for MRI” (Regents of the University of California, priority 1993, dated 1996).
Each block holds one compound with its values, some of them ahead of it.

What was measured:
[1] = system: liver transport system or systems inhibitable by BSP; conditions: cited from earlier work
[2] = rat, in vivo, 6 h; cited from earlier work
[3] = T1-weighted spin-echo, 0.5 Tesla; cited from earlier work
[4] = in vivo; cited from earlier work
[5] = In vivo MRI, % enhancement by region of interest (Example 19); design: species or system Sprague-Dawley rats
Method: Magnetic resonance imaging was carried out using a CSI 2-Tesla imager (GE, Inc., Fremont, Calif.) equipped with a 5-cm diameter distributed-capacitance imaging coil. A T1-weighted (TR 300/TE 6; NEX 4) spin-echo sequence was used.
Sprague-Dawley rats (250-350 g; n=4 for each contrast agent) were anesthetized with ketamine (90 mg/kg) and diazepam (10 mg/kg) and fitted with an intravenous catheter in a lateral tail vein. Anesthesia was maintained during imaging using pentobarbital delivered via an intraperitoneal catheter.
The anesthetized animal was placed in the imaging coil and secured with tape. The coil containing the animal then was placed in the magnet bore, and the magnetic field was shimmed. Pre-contrast images were obtained. The contrast agent (100 μmol/kg) then was injected via the tail-vein catheter, and additional images were obtained at various intervals for up to 90 min post injection.
Contrast agent enhancement was determined by measuring the mean signal intensity (SI) in operator-designated regions of interest (ROI). These were normalized to the pre-injection value for each ROI according to the following formula:
% Enhancement=100×(SIpost -SIpre)/SIpre

[6] = Hydrolysis of the esters in pH 7.4 HEPES buffer; assay type: physicochemical; conditions: pH 7.4, 25° C., each step
Method: (§1) Aliquots were withdrawn at various time intervals and examined by HPLC [PRP-1 column; water-acetonitrile gradient; 25 mM ammonium formate, pH 7 mobile phase].

[7] = assay type: in vitro ADME, rat
Method: as §1

[8] = Comparative MRI of two preparations of Gd-DTPA-bis(phenylalanine ethyl ester) (Example 11); assay type: in vivo, mice
Method: FIG. 8 is a photograph of T1-weighted magnetic resonance images obtained as in FIG. 6, except that a different preparation of Gd-DTPA-bis(phenylalanine ethyl ester) (sometimes abbreviated Gd-DTPA-(PheOEt)2) was used.
Freshly prepared material, whose pH was carefully adjusted to neutrality, and which was stored in the cold, was determined to be about 90% Gd-DTPA-(PheOEt)2, the remainder being mostly Gd-DTPA-(PheOEt) (Phe).

[9] = T1-weighted spin-echo MRI of a rat, region-of-interest % enhancement (Examples 8 and 9); assay type: in vivo, Sprague-Dawley rat
Method: FIG. 5 is a photograph of T1-weighted magnetic resonance images of a rat obtained before, and at 0, 5, 10, 15, 25, 45 and 60 minutes after the injection of Gd-DTPA-bis(phenylalanine) at a dose of 0.1 mmol/kg body weight. The images are 60 mm×60 mm×3 mm thick slices in the coronal plane. The region covered extends from just above the heart to somewhat below the liver. Imaging parameters are indicated along the left of the Figure and include the repetition time ([…]), echo time (6000 microseconds), number of signal averages (4), and the image matrix size (128×256).
FIGS. 6A and 6B are photographs of T1-weighted magnetic resonance images obtained as described in FIG. 5A and 5B, except that Gd-DTPA-bis(phenylalanine ethyl ester) was used as the contrast agent.
A 300-g male Sprague-Dawley rat was anesthetized with an intraperitoneal injection of a mixture of ketamine and diazepam, and a catheter was inserted into a lateral tail vein. The rat was then placed in a 5-cm inside diameter (i.d.) imaging coil in the bore of a 2-Tesla imager-spectrometer system (GE CSI; General Electric Co., Fremont, Calif.). A T1-weighted spin-echo image of the animal's abdomen in the coronal plane was then obtained (TR 300 ms; Te 6 ms; 128-256 image matrix; NEX=4; 3 mm slice thickness). Next, 0.6 g of the Gd-DTPA-bis(phenylalanine) solution described in Example 7 was injected via the catheter. A series of post-injection images were obtained. […] See also, FIGS. 5A and 5B.
The imaging was carried out analogously to Example 8. […] See also, FIGS. 6A and 6B.

[10] = more pure preparation (about 90% bis ester)
[11] = partially hydrolyzed material of FIG. 6 (ca. 45% bis ester)

Compound: O=C([O-])C(NCCNC(C(=O)[O-])c1ccccc1[O-])c1ccccc1[O-].[Fe+3] (stereo not shown) [Fe-EHPG]
- liver transport (in words) [1]: transported in the liver by a system or systems inhibitable by BSP

Compound: CC(=O)N([O-])CCCCCNC(=O)CCC(=O)N([O-])CCCCCNC(=O)CCC(=O)N([O-])CCCCCNC(=O)CC(CC(=O)[O-])c1ccccc1.[Fe+3].[H+] (stereo not shown) [Fe-PGDF]
- liver transport (in words) [1]: transported in the liver by a system or systems inhibitable by BSP

Compound: O=C([O-])CN(CCN(CC(=O)[O-])CC(=O)[O-])CCN(CC(=O)[O-])C(COCc1ccccc1)C(=O)[O-].[Gd+3] (stereo not shown) [Gd-BOPTA]
- biliary excretion [2]: 38.6 % of injected dose
- signal enhancement in liver [3]: 48%

Compound: CNC[C@H](O)[C@@H](O)[C@H](O)[C@H](O)CO.CNC[C@H](O)[C@@H](O)[C@H](O)[C@H](O)CO.O=C([O-])CN(CCN(CC(=O)[O-])CC(=O)O)CCN(CC(=O)[O-])CC(=O)O.[Gd+3] [Gd-DTPA, gadolinium (III) complex of diethylenetriaminepentaacetic acid]
- distribution (in words) [4]: distributes in blood plasma and extracellular fluid
- signal enhancement in liver [3]: 16%

Compound: COc1ccc(CCNC(=O)CN(CCN(CCN(CC(=O)[O-])CC(=O)NCCc2ccc(OC)c(OC)c2)CC(=O)[O-])CC(=O)[O-])cc1OC.[Gd+3] [Gd-DTPA-(3,4-DMPE)2]
- lung enhancement ([5]; 100 μmol/kg i.v., n=4): 141%±4%
- enhancement of organs (in words) ([5]; MRI of rats): useful enhancement of heart, lungs, kidney and liver

- half-time of hydrolysis in aqueous buffer [6]: of the order of days
- t1/2 of ester hydrolysis in rat plasma [7]: None Detected
Compound: CCOC(=O)[C@@H](Cc1ccccc1)NC(=O)CN(CCN(CCN(CC(=O)[O-])CC(=O)N[C@H](Cc1ccccc1)C(=O)OCC)CC(=O)[O-])CC(=O)[O-].[Gd+3] [Gd-DTPA-(D-PheOEt)2, Gd(III)-DTPA-bis(D-phenylalanine ethyl ester)]
- ester hydrolysis in rat plasma (in words) [7]: resistant to even the first step of ester hydrolysis

- half-time of hydrolysis in aqueous buffer [6]: of the order of days
- ester hydrolysis in rat plasma (in words) [7]: very rapidly hydrolyzed in rat plasma
Compound: CCOC(=O)[C@H](Cc1ccccc1)NC(=O)CN(CCN(CCN(CC(=O)[O-])CC(=O)N[C@@H](Cc1ccccc1)C(=O)OCC)CC(=O)[O-])CC(=O)[O-].[Gd+3] [Gd-DTPA-bis(phenylalanine ethyl ester), Gd(III)-DTPA-bis(L-phenylalanine ethyl ester)]
- heart enhancement [8, 10]: 74%
- liver enhancement [8, 10]: 163%
- factor by which degree of liver enhancement was greater ([8]; more pure preparation vs FIG. 6 material): about three
- heart enhancement [8, 11]: 84%
- liver enhancement [8, 11]: 53%
- image enhancement (in words) ([9]; 2 Tesla, about 0.1 mmol/kg): different apparent enhancement in the liver and heart
- image region-of-interest % enhancement ([9]; heart, 0-3 min post-injection): 86%
- image region-of-interest % enhancement ([9]; heart, 5-8 min post-injection): 46%
- image region-of-interest % enhancement ([9]; heart, 15-18 min post-injection): 66%
- image region-of-interest % enhancement ([9]; heart, 25-38 min post-injection): 48%
- image region-of-interest % enhancement ([9]; heart, 45-48 min post-injection): 49%
- image region-of-interest % enhancement ([9]; heart, 60-63 min post-injection): 25%
- image region-of-interest % enhancement ([9]; liver, 0-3 min post-injection): 70%
- image region-of-interest % enhancement ([9]; liver, 5-8 min post-injection): 109%
- image region-of-interest % enhancement ([9]; liver, 15-18 min post-injection): 113%
- image region-of-interest % enhancement ([9]; liver, 25-38 min post-injection): 99%
- image region-of-interest % enhancement ([9]; liver, 45-48 min post-injection): 71%
- image region-of-interest % enhancement ([9]; liver, 60-63 min post-injection): 44%
- image region-of-interest % enhancement ([9]; muscle (Table 3: skeletal muscle), 0-3 min post-injection): 50%
- image region-of-interest % enhancement ([9]; muscle (Table 3: skeletal muscle), 5-8 min post-injection): 30%
- image region-of-interest % enhancement ([9]; muscle (Table 3: skeletal muscle), 15-18 min post-injection): 31%
- image region-of-interest % enhancement ([9]; muscle (Table 3: skeletal muscle), 25-38 min post-injection): 26%
- image region-of-interest % enhancement ([9]; muscle (Table 3: skeletal muscle), 45-48 min post-injection): 16%
- image region-of-interest % enhancement ([9]; muscle (Table 3: skeletal muscle), 60-63 min post-injection): 16%
